This note sets out measurements from PubChem BioAssay (NCI).

Among the test systems are SK-OV-3 ovarian; A549 NSCLC; OVCAR-5 ovarian; MDA-MB-435; SF-295 CNS; SK-MEL-5 melanoma; UACC-257 melanoma; M14 melanoma; HCT-15 colon; MALME-3M melanoma.
Holding throughout (experiment): inhibition of tumour cell growth, NCI panel, 48 h

Values joined by “and” are separate entries in the source; they are usually repeats but may differ in a detail not shown here. Identical values can stand only once.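 The compound was tested at five concentrations on cells cultured in 96-well plates, with a 48-hour exposure period. GI50 is the concentration that inhibits growth by half. TGI: concentration producing complete growth inhibition.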

Consider `CN(CCCNC(=O)CCOCCOCCOCCNC(=O)Cc1ccc2ccc3cccc4ccc1c2c34)CCCNc1cc(-c2ccc3ccccc3c2)nc2ccccc12`, for which the GI50 in the assay with SK-OV-3 ovarian was 0.634 µM; in the assay with A549 NSCLC it was 0.629 µM; in the assay on OVCAR-5 ovarian it was 0.635 µM; in the assay with MDA-MB-435 it was 108 nM; in the assay on SF-295 CNS, 1.57 µM; in the assay on SK-MEL-5 melanoma it was 0.541 µM. In addition, the GI50 is 0.478 µM with UACC-257 melanoma, 0.591 µM with M14 melanoma and 1.19 µM in the assay on HCT-15 colon. Besides, the TGI worked out at 1.2 µM with SK-OV-3 ovarian; 1.74 µM in the assay on A549 NSCLC; 1.18 µM in the assay on OVCAR-5 ovarian; 0.403 µM with MDA-MB-435; 3.75 µM with SF-295 CNS; 1.01 µM with SK-MEL-5 melanoma. Moreover, the TGI in the assay on UACC-257 melanoma amounted to 0.908 µM; in the assay on M14 melanoma it was 1.14 µM; in the assay on HCT-15 colon, 2.81 µM.
As to `CN1c2ccccc2N(C(=O)c2ccccc2)C(CC(=O)O)c2cccn21` (configuration not stated), the TGI in the assay on SK-OV-3 ovarian, with A549 NSCLC, in the assay with OVCAR-5 ovarian, in the assay with SF-295 CNS, in the assay with SK-MEL-5 melanoma and with MALME-3M melanoma was over 100 µM throughout. In addition, the TGI with UACC-257 melanoma, in the assay with M14 melanoma and in the assay on HCT-15 colon was over 100 µM each time.
On to `CC(=O)O[C@H]1CC[C@@]2(C)C(=CC[C@@H]3C2CC[C@]2(C)Nc4nc5ccccc5cc4CC32)C1` (some centres not stated), for which the TGI in the assay on SK-OV-3 ovarian turned out to be 8.4 µM; with A549 NSCLC it was 12.9 µM; in the assay on OVCAR-5 ovarian it was 26.9 µM; in the assay with SF-295 CNS, 13.9 µM; with SK-MEL-5 melanoma it was 15.4 µM; with MALME-3M melanoma, 21.7 µM. In addition, the TGI was determined as 13 µM in the assay with UACC-257 melanoma, 5.03 µM in the assay with M14 melanoma and 8.01 µM in the assay on HCT-15 colon.
Turning to `Brc1ccc2ns[s+]c2c1`, the TGI is over 100 µM in the assay with SK-OV-3 ovarian; over 100 µM in the assay on A549 NSCLC; over 100 µM in the assay on OVCAR-5 ovarian; over 100 µM in the assay with SF-295 CNS; over 46.7 µM with SK-MEL-5 melanoma; over 86 µM in the assay on MALME-3M melanoma. Also, the TGI in the assay with UACC-257 melanoma is over 100 µM; with M14 melanoma, 5.88 µM; in the assay on HCT-15 colon, over 100 µM.
In the case of `CC[C@H](C)[C@H](NC(=O)[C@H]1CCCCN1C)C(=O)N(C)[C@H](C[C@@H](OC(C)=O)c1nc(C(=O)N[C@@H](Cc2ccccc2)C[C@H](C)C(=O)O)cs1)C(C)C`, the GI50 with SK-OV-3 ovarian is 0.000807 µM and 0.00165 µM; in the assay on A549 NSCLC, 0.00153 µM and 0.00165 µM; in the assay with OVCAR-5 ovarian, 0.00324 µM and 0.00165 µM; with MDA-MB-435 it was 0.0749 nM and < 1.65 nM; with SF-295 CNS it was 0.000305 µM and < 0.00165 µM; with SK-MEL-5 melanoma, 0.00013 µM and < 0.00165 µM. Further, the GI50 in the assay with UACC-257 melanoma is over 16.5 µM; with M14 melanoma it was 0.000337 µM and < 0.00165 µM; in the assay on HCT-15 colon, 0.00133 µM and 0.00165 µM. Moreover, the TGI was over 16.5 µM with A549 NSCLC; over 16.5 µM in the assay on OVCAR-5 ovarian; 0.000386 µM and < 0.00165 µM in the assay with MDA-MB-435; 0.00282 µM and < 0.00165 µM in the assay on SF-295 CNS; 0.0102 µM and < 0.00165 µM in the assay on SK-MEL-5 melanoma; over 16.5 µM in the assay on UACC-257 melanoma. The TGI in the assay on M14 melanoma is under 0.00165 µM; with HCT-15 colon, over 16.5 µM.
Turning to `CCCCCCCCCCCC[n+]1ccc2ccccc2c1`, the GI50 was 1.43 µM with SK-OV-3 ovarian; 1.75 µM in the assay with A549 NSCLC; 1.34 µM in the assay with OVCAR-5 ovarian; 387 nM in the assay with MDA-MB-435; 0.882 µM in the assay on SF-295 CNS; 0.317 µM in the assay with SK-MEL-5 melanoma. Also, the GI50 in the assay on UACC-257 melanoma is 0.405 µM; with M14 melanoma it was 0.588 µM; with HCT-15 colon, 2.6 µM. Further, the TGI in the assay on SK-OV-3 ovarian was found to be 3.1 µM; in the assay on A549 NSCLC, 3.38 µM; in the assay on OVCAR-5 ovarian it was 3.74 µM; in the assay with MDA-MB-435, 1.55 µM; in the assay with SF-295 CNS it was 2.74 µM; in the assay on SK-MEL-5 melanoma it was 1.28 µM. Further, the results for the TGI with UACC-257 melanoma, in the assay on M14 melanoma and in the assay on HCT-15 colon were 1.82 µM, 2.79 µM and 13.8 µM, respectively.
Turning to `O=C(NNc1ccccc1)/C(=C/c1ccc2c(c1)OCO2)NC(=O)c1ccccc1`, the TGI in the assay on SK-OV-3 ovarian, in the assay with A549 NSCLC, with OVCAR-5 ovarian, in the assay on SF-295 CNS, in the assay on SK-MEL-5 melanoma and with MALME-3M melanoma was over 100 µM throughout. Moreover, the TGI with UACC-257 melanoma, in the assay on M14 melanoma and with HCT-15 colon was over 100 µM throughout.
For `NC(=O)NC1C(C(N)=O)N(Cc2ccccc2)C(=O)N1Cc1ccccc1` (configuration not stated), the TGI with SK-OV-3 ovarian, with A549 NSCLC, with OVCAR-5 ovarian, with SF-295 CNS, in the assay with SK-MEL-5 melanoma and in the assay with MALME-3M melanoma was over 100 µM each time. Besides, the TGI in the assay with UACC-257 melanoma, in the assay with M14 melanoma and in the assay on HCT-15 colon was over 100 µM throughout.
For the compound `CC(=O)C1=C(O)C2C3c4c[nH]c5cccc(c45)CC3C(C)(C)N2C1=O` (configuration not stated), the TGI is over 100 µM with SK-OV-3 ovarian; over 100 µM in the assay with A549 NSCLC; over 100 µM in the assay on OVCAR-5 ovarian; over 100 µM with SF-295 CNS; 27.2 µM in the assay on SK-MEL-5 melanoma; over 100 µM with MALME-3M melanoma. Moreover, the TGI with UACC-257 melanoma, in the assay with M14 melanoma and in the assay with HCT-15 colon was over 100 µM each time.
As for `C[C@]12CCC3[C@@H](CC[C@@H]4c5nonc5CC[C@]34C)C1CC[C@@H]2O` (some centres not stated), the TGI in the assay with SK-OV-3 ovarian was 84.9 µM; with A549 NSCLC, 85.2 µM; in the assay on OVCAR-5 ovarian, over 100 µM; in the assay on SF-295 CNS it was over 100 µM; with SK-MEL-5 melanoma, 41 µM; with MALME-3M melanoma, 69.3 µM. In addition, the TGI with UACC-257 melanoma turned out to be 46.9 µM; with M14 melanoma it was 53 µM; in the assay on HCT-15 colon, 83.5 µM.
For `Cc1c(/C=N/N(C)C)oc2c1cc(O)c1ncccc12`, the TGI is 71.7 µM in the assay with SK-OV-3 ovarian; over 100 µM in the assay with A549 NSCLC; over 100 µM in the assay with OVCAR-5 ovarian; 97.9 µM with SF-295 CNS; 39.3 µM in the assay with SK-MEL-5 melanoma; 84.5 µM in the assay on MALME-3M melanoma. Besides, the figures for the TGI in the assay on UACC-257 melanoma, with M14 melanoma and in the assay on HCT-15 colon were over 100 µM, 14.9 µM and over 100 µM, respectively.
For `CC(=O)NC(CC(C)C)C(=O)NC(Cc1ccccc1)C(=S)N1CCCC1` (configuration not stated), the TGI with SK-OV-3 ovarian, in the assay on A549 NSCLC, in the assay on OVCAR-5 ovarian, in the assay on SF-295 CNS, with SK-MEL-5 melanoma and in the assay with MALME-3M melanoma was over 100 µM in each case. Moreover, the TGI in the assay on UACC-257 melanoma, in the assay with M14 melanoma and with HCT-15 colon was over 100 µM in each case.
For the compound `CC(=O)OC1COC(n2c(=S)n(-c3ccccc3)c(=O)c3ccccc32)C(OC(C)=O)C1OC(C)=O` (configuration not stated), the TGI was over 100 µM with SK-OV-3 ovarian; over 100 µM with A549 NSCLC; over 100 µM in the assay on OVCAR-5 ovarian; 85.7 µM in the assay on SF-295 CNS; over 100 µM in the assay with SK-MEL-5 melanoma; over 100 µM in the assay with MALME-3M melanoma. The TGI in the assay on UACC-257 melanoma, in the assay with M14 melanoma and with HCT-15 colon was over 100 µM in each case.
Consider `CC(C)(C)C(C#N)(C#N)c1ccc(C(C#N)(C#N)C(C)(C)C)nn1`, for which the TGI with SK-OV-3 ovarian, with A549 NSCLC, in the assay on OVCAR-5 ovarian, with SF-295 CNS, with SK-MEL-5 melanoma and in the assay with MALME-3M melanoma was over 100 µM throughout. Also, the TGI in the assay with UACC-257 melanoma, in the assay on M14 melanoma and with HCT-15 colon was over 100 µM in each case.
As for `CC1(C)C(=O)C(C)(C)C1=S`, the TGI with SK-OV-3 ovarian, in the assay with A549 NSCLC, in the assay on OVCAR-5 ovarian, in the assay on SF-295 CNS, with SK-MEL-5 melanoma and in the assay with MALME-3M melanoma was over 100 µM throughout. In addition, the TGI in the assay on UACC-257 melanoma, with M14 melanoma and in the assay with HCT-15 colon was over 100 µM each time.
For the compound `O=C(Nc1nc2c(ncn2C2OC(CO)C(O)C2O)c(=O)[nH]1)c1ccccc1` (configuration not stated), the TGI in the assay with SK-OV-3 ovarian, with A549 NSCLC, in the assay on OVCAR-5 ovarian, with SF-295 CNS, in the assay with SK-MEL-5 melanoma and in the assay with MALME-3M melanoma was over 100 µM in each case. In addition, the TGI with UACC-257 melanoma, in the assay with M14 melanoma and in the assay with HCT-15 colon was over 100 µM each time.
As to `O=P(O)(O)C1(P(=O)(O)O)CC1`, the TGI in the assay with SK-OV-3 ovarian, in the assay on A549 NSCLC, with OVCAR-5 ovarian, in the assay on SF-295 CNS, in the assay on SK-MEL-5 melanoma and in the assay with MALME-3M melanoma was over 100 µM in each case. Further, the TGI in the assay on UACC-257 melanoma, in the assay on M14 melanoma and in the assay on HCT-15 colon was over 100 µM in each case.
Regarding `CCCCCCC[CH2][Sn]1([CH2]CCCCCCC)[O]C(=O)c2cccnc2[O]1`, the GI50 in the assay on SK-OV-3 ovarian, with A549 NSCLC, in the assay with OVCAR-5 ovarian, in the assay on SF-295 CNS, with SK-MEL-5 melanoma and in the assay on MALME-3M melanoma was over 100 µM in each case. Further, the GI50 in the assay on UACC-257 melanoma, in the assay with M14 melanoma and in the assay with HCT-15 colon was over 100 µM throughout. Moreover, the TGI with SK-OV-3 ovarian, in the assay on A549 NSCLC, in the assay on OVCAR-5 ovarian, in the assay on SF-295 CNS, in the assay on SK-MEL-5 melanoma and in the assay with MALME-3M melanoma was over 100 µM throughout. The TGI in the assay with UACC-257 melanoma, in the assay with M14 melanoma and in the assay on HCT-15 colon was over 100 µM throughout.
